Where two headings read alike, the source gives them in different places.
Tests used:
[1] = target: TRPC5 channel (Homo sapiens (Human), UniProt Q9UL62); test: TRPC5 calcium flux assay (Fluo-4, FLIPR) in TRPC5-HEK 293 cells; assay type: cell-based; conditions: for IC50: 0.3 nM Englerin A
Method: TRPC5 is a type of non-selective cation channel with permeability to calcium ions. […] Fluo-4 AM fluorescence dye was used to indirectly reflect the effect of the compound on TRPC5 channel by detecting intracellular Ca^2+ in TRPC5-HEK 293 cells.
• Revival solution: 100% high glucose DMEM • Selection medium: high glucose DMEM+10% FBS+1% P/S+1% HEPES+Blasticidin (5 μg/mL)+Hygromycine (50 μg/mL) • Induction medium: high glucose DMEM+10% FBS+1% P/S+1% HEPES+Doxycycline (1 μg/mL)
(§1) 14 hours before the real-time fluorescence experiment, cells were washed with PBS and digested with trypsin-EDTA. Cells were diluted to 200,000 cells/mL with induction medium and seeded onto a 96-well black wall bottom transparent plate coated with poly-D-lysine (PDL) (stock solution of 10 mg/mL, final concentration of 10 μg/mL) at 100 μL/well, i.e., 20,000 cells/well.
500 mL of external solution for detecting TRPC5 calcium signals: 4.0908 g of NaCl, 0.1864 g of KCl, 0.111 g of CaCl2, 0.0476 g of MgCl2, 0.9 g of glucose, 1.1915 g of HEPES (2-[4-(2-hydroxyethyl)piperazin-1-yl]ethanesulfonic acid).
Calcium fluorescent dye: an external solution for detecting TRPC5 calcium signals containing Fluo-4 with a final concentration of 4 μM (containing 0.5% BSA)
Positive inhibitor concentration: 100 nM
The dose-effect diagram was used to calculate AUC (area under the curve of the curve formed by the calcium flux signal), and the data and the log of the compound concentration were collected. The IC50 value was calculated using log[Inhibitor] vs. response Variable slope.
TRPC5 is a type of non-selective cation channel with permeability to calcium ions. […] Fluo-4 AM fluorescence dye was used to indirectly reflect the effect of the compound on TRPC5 channel by detecting intracellular […] in TRPC5-HEK 293 cells.
1. Cell culture 1.1 Revival of TRPC5-HEK 293 cells • Revival solution: 100% high glucose DMEM • Selection medium: high glucose DMEM+10% FBS+1% P/S+1% HEPES+Blasticidin (5 μg/mL)+Hygromycine (50 μg/mL) • Induction medium: high glucose DMEM+10% FBS+1% P/S+1% HEPES+Doxycycline (1 μg/mL)
as §1, with “trypsin-EDTA (TE).” for “trypsin-EDTA.”

[2] = Liver microsome half-life assay, human; assay type: in vitro ADME; conditions: for metabolic stability in liver microsomes: compared with compounds C001 and C002, statement on Table 12, species not specified; for half-life: human, liver microsomes, 1 mg/mL liver microsomal protein, 37° C., read-out: Liver microsome T½ (min) Human
Method: (§2) The in vitro metabolic stability of the compounds of the present disclosure was determined using warm incubation method of liver microsomes in various species. A proper amount of test compound was added to the liver microsomal reaction system (1 mg/mL liver microsomal protein, 25 U/mL glucose-6-phosphate dehydrogenase, 1 mM NADP, 6 mM D-glucose 6-phosphate, 5 mM MgCl2), and the reaction was started by warm incubation in a water bath at 37° C., then 100 μL of the reaction mixture at each time point was added to a centrifuge tube containing 400 μL of internal standard working solution precooled at 0° C. (containing a solution of 200 ng/mL dexamethasone, diclofenac, tolbutamide, and labetalol in acetonitrile), then the reaction was terminated, centrifuged at 4° C. and 10,000 g for 10 min, and the supernatant was taken into LC-MS for analysis and detection to obtain in vitro metabolic half-lives of the test compounds in liver microsomes of various species.

[3] = Liver microsome half-life assay, mouse; assay type: in vitro ADME; conditions: liver microsomes, 1 mg/mL liver microsomal protein, 37° C., read-out: Liver microsome T½ (min) Mouse
Method: as §2

[4] = Pharmacokinetic study in mice in vivo (gavage and tail vein injection); conditions: mouse, plasma; for AUC(0-t) / Cmax: dose 1 mg/kg; for bioavailability: 1 mg/kg, p.o. vs i.v.
Text: […] Mouse plasma was collected at a specific time point after administration, and the concentration of the compound in plasma was detected by LC-MS/MS (AB SCIEX Qtrap4500). PK parameters of each compound (WinNonlin V5.2, Pharsight) were statistically analyzed and calculated to reflect the pharmacokinetic properties of the compounds of the present disclosure in mice in vivo.

[5] = Liver microsome half-life assay, rat; assay type: in vitro ADME; conditions: liver microsomes, 1 mg/mL liver microsomal protein, 37° C., read-out: Liver microsome T½ (min) Rat
Method: as §2

[6] = Liver microsome half-life assay, beagle dog; assay type: in vitro ADME; conditions: liver microsomes, 1 mg/mL liver microsomal protein, 37° C., read-out: Liver microsome T½ (min) Beagle dog
Method: as §2

[7] = Liver microsome half-life assay, monkey; assay type: in vitro ADME; conditions: liver microsomes, 1 mg/mL liver microsomal protein, 37° C., read-out: Liver microsome T½ (min) Monkey
Method: as §2

[8] = Table 11, read-out: TRPC5 inhibitory activity, IC50

TRPC5 channel, sequence (Q9UL62 whole entry): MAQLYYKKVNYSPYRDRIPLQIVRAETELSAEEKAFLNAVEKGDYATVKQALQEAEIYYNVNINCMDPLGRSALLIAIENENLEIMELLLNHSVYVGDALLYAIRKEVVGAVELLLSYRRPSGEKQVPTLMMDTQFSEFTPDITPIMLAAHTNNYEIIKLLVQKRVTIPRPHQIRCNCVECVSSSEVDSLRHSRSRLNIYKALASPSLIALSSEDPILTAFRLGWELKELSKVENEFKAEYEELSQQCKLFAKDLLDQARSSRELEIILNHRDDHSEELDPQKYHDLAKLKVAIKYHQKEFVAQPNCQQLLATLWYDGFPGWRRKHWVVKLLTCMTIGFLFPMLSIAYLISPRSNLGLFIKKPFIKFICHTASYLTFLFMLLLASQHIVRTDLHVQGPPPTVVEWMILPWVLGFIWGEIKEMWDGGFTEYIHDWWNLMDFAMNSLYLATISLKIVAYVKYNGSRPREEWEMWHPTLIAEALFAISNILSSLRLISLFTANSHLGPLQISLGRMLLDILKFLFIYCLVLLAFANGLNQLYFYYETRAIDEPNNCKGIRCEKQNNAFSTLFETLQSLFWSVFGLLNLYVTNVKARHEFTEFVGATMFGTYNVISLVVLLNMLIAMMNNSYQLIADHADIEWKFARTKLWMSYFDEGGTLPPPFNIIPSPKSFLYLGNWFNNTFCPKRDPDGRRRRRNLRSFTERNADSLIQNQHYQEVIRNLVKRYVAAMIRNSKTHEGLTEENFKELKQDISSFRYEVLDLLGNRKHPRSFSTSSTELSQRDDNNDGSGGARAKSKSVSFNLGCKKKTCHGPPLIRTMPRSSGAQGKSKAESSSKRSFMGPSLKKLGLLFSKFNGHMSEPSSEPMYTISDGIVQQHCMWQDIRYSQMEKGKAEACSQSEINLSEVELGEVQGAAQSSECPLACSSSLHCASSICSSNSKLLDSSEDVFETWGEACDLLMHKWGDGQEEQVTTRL

SMILES	IC50 [1, 8] [µM]	half-life [2] [min]	half-life [3] [min]	AUC(0-t) ([4]; iv) [µg·h/mL]	Cmax ([4]; iv) [µg/mL]	bioavailability ([4]; po) [%]	AUC(0-t) ([4]; po) [µg·h/mL]	Cmax ([4]; po) [µg/mL]	half-life [5] [min]	further results
O=c1[nH]ncc(N2CCn3c(Cc4ccc(F)cc4C(F)(F)F)cnc3C2)c1Cl [Compound L002, 4-chloro-5-(3-(4-fluoro-2-(trifluoromethyl)benzyl)-5,6-dihydroimidazo[1,2-a]pyrazin-7(8H)-yl)pyridazin-3(2H)-one]	0.00652	262	188	1.45	0.833	43.2	0.625	0.248		metabolic stability in liver microsomes [2]: significantly improved
O=C(c1ccc(F)cc1C(F)(F)F)c1cnc2n1CCN(c1cnn(COP(=O)(O)O)c(=O)c1Cl)C2 [Compound 1, (5-chloro-4-(3-(4-fluoro-2-(trifluoromethyl)benzoyl)-5,6-dihydroimidazo[1,2-a]pyrazin-7(8H)-yl)-6-oxopyridazin-1(6H)-yl)methyl dihydrogen phosphate]										inhibitory activity against TRPC5 channels [1]: no inhibitory activity; IC50 ([1]; Table 1, read-out: TRPC5 inhibitory activity, IC50): > 10 µM
O=c1[nH]ncc(N2CCc3c(ncn3Cc3ccccc3C(F)(F)F)C2)c1Cl [Compound C001, reference compound]		54	60						5	half-life [6]: 15 min; half-life [7]: 38 min
O=c1[nH]ncc(N2CCc3c(ncn3Cc3ccc(F)cc3C(F)(F)F)C2)c1Cl [Compound C002, reference compound]		90	115						34	half-life [6]: 102 min; half-life [7]: 15 min
O=c1[nH]ncc(N2CCn3c(Cc4ccccc4C(F)(F)F)cnc3C2)c1Cl [Compound L001, 4-chloro-5-(3-(2-(trifluoromethyl)benzyl)-5,6-dihydroimidazo[1,2-a]pyrazin-7(8H)-yl)pyridazin-3(2H)-one]	0.0108	173	154	0.225	0.225	80.6	0.0843	0.0843	20	metabolic stability in liver microsomes [2]: significantly improved

Second part, led by results:

IC50 [1, 8] [µM]	half-life [2] [min]	half-life [3] [min]	AUC(0-t) ([4]; iv) [µg·h/mL]	Cmax ([4]; iv) [µg/mL]	bioavailability ([4]; po) [%]	AUC(0-t) ([4]; po) [µg·h/mL]	Cmax ([4]; po) [µg/mL]	half-life [5] [min]	SMILES	further results
0.024									N#Cc1ccc(C(=O)c2cnc3n2CCN(c2cn[nH]c(=O)c2Cl)C3)c(C(F)(F)F)c1 [Compound L019, 4-(7-(5-chloro-6-oxo-1,6-dihydropyridazin-4-yl)-5,6,7,8-tetrahydroimidazo[1,2-a]pyrazine-3-carbonyl)-3-(trifluoromethyl)benzonitrile]	
0.0394									O=c1[nH]ncc(N2CCn3c(Cc4ccc(F)cc4Cl)cnc3C2)c1Cl [Compound L009]	
0.00737									O=c1[nH]ncc(N2CCn3c(Cc4ccc(F)cc4C(F)F)cnc3C2)c1Cl [Compound L007]	
0.0146	148	131							O=c1[nH]ncc(N2CCn3c(Cc4cc(F)ccc4C(F)(F)F)cnc3C2)c1Cl [Compound L013, 4-chloro-5-(3-(5-fluoro-2-(trifluoromethyl)benzyl)-5,6-dihydroimidazo[1,2-a]pyrazin-7(8H)-yl)pyridazin-3(2H)-one]	
0.0182	7590	167	0.663	0.762	161	1.07	0.301		N#Cc1ccc(Cc2cnc3n2CCN(c2cn[nH]c(=O)c2Cl)C3)c(C(F)(F)F)c1 [Compound L014, 4-((7-(5-chloro-6-oxo-1,6-dihydropyridazin-4-yl)-5,6,7,8-tetrahydroimidazo[1,2-a]pyrazin-3-yl)methyl)-3-(trifluoromethyl)benzonitrile]	

Source: patent US20240317755A1, “HETEROCYCLIC COMPOUND, AND INTERMEDIATE THEREOF, PREPARATION METHOD THEREFOR AND USE THEREOF” (WUHAN LL SCIENCE AND TECHNOLOGY DEVELOPMENT CO., LTD., priority 2021, published 2024)
